The values that follow come from patent publication US9192568B2, “Formulations comprising jorumycin-, renieramycin-, safracin- or saframycin-related compounds for treating proliferative diseases” (Pharma Mar, S.A., priority 2005, dated 2015).

The nature of one data set: Aqueous solubility. It is filed as physicochemical. From the text:
These characteristics challenge the ordinary skills and conventional methodologies in this technology, particularly when it comes to the preparation of formulations of these compounds that are to be readily used for medical purposes. Such uses preferably rely on formulations whose characteristics include one or more of the following: biocompatibility, stability under ambient conditions, or under conditions that are as near to ambient conditions as possible, with a shelf life that is as long as possible, and easy reconstitutability to form reconstituted solutions that are as stable under ambient, or near ambient conditions, for as long as possible.

The subject of data set [1] is xenografted human cell lines in mice, such as breast and prostate. The following applies: several xenografted human cell lines in mice; cited from earlier work.
Data set [2] relates to solid and non-solid tumor cell lines. The following applies: cited from earlier work.

Take `COc1c(C)cc2c(c1O)[C@@H]1[C@@H]3Cc4c(OC(C)=O)c(C)c5c(c4[C@H](CNC(=O)/C=C/c4cccc(C(F)(F)F)c4)N3[C@@H](O)[C@H](C2)N1C)OCO5` [PM00104]: in “Aqueous solubility”, the aqueous solubility result is reported as “limited aqueous solubility”. In addition, in data set [1], the in vivo activity result is reported as “significant in vivo activity”. The in vitro activity entry in data set [2] is listed as “significant in vitro activity”.

On to `COc1c(C)cc2c(c1O)[C@@H]1[C@@H]3Cc4c(OC(C)=O)c(C)c5c(c4[C@H](COC(=O)/C=C/c4ccccc4)N3[C@@H](O)[C@H](C2)N1C)OCO5` [PM00121], for which, in the data set “Aqueous solubility”, the aqueous solubility entry is reported as “limited aqueous solubility”.
